Test results taken from patent publication US6294568A, “5-arylpyrrole derivatives” (priority 1997, dated 2001).
Read-outs that look alike come from different tables or passages of the source. Values belong to the compound of their own block, whether it stands above or below them.

How the values were obtained:
[1] = test system: pain threshold of brewer's yeast inflamed hind paw; test: Analgesic Action Test (Randall et al.); assay type: in vivo, SD rats; conditions: 3 mg/kg
Description: SD rats (6 rats per group) fasted overnight were employed for the test. After the measurement of pain threshold values of the left and right hind paws twice using an analgesimeter, the rats were injected subcutaneously with 0.1 ml of 20% brewer's yeast solution at the plantar area of the right hind paw to elicit inflammation. Two hours after the elicitation of inflammation, the pain threshold values of the left and right hind paws were measured and, immediately after the measurement, the test samples were administered orally to the rats. Three hours after the administration, the pain threshold values of the left and right hind paws were measured. […] The dosage amount of each of the test samples was 3 mg/kg.
Pain threshold value rising rate (%)=((pain threshold value of 3 hours after drug administration-pain threshold value of 2 hours after yeast administration)/(pain threshold value before yeast administration-pain threshold value of 2 hours after yeast administration))×100
Pain threshold value fluctuation rate (%)=(1 -(pain threshold value of 3 hours after drug administration/pain threshold value of 2 hours after […]

Brewer's Yeast Fever = test: Antipyretic Action Test With Respect To Brewer's Yeast Fever; assay type: in vivo, rats
Description: The antipyretic action was measured as described in the following. A sensor was inserted into the rectum of each rats and the body temperature of one hour after the insertion was recorded as the basal body temperature. The rats were injected subcutaneously with 2 ml/body of 20% brewer's yeast at the region of back and, 18 hours after the injection, the intrafebrile body temperatures were measured. Rats who had shown not less than 0.75° C. of body temperature elevation were selected to whom the test samples was administered orally. The body temperatures of the selected rats were measured every one hour for the following 5 hours. The dosage of each of the test samples was 10 mg/kg.

adjuvant arthritis = test: Rat Adjuvant Arthritis Test; assay type: in vivo, SD rats; conditions: 3 mg/kg, oral
Description: SD rats were injected subcutaneously with […] liquid paraffin/rat of H-37RA strain in the plantar area of the right hind paw. Only liquid paraffin (0.05 ml) was administered to control groups in the same manner. 21 days after the administration, rats showing the evidence of arthritis were selected and divided into groups having equal mean left and right hind paw volumes, and also having equal arthritis scores. From the date of the grouping, the test samples were administered orally to the rats once daily for 7 days (only the solvent was administered to the negative and positive control groups). The degree of the arthritis was quantitatively evaluated by measuring the volumes of the left and right hind paws by using a volume meter (manufactured by Muromachi Kikai) and by scoring the degree of arthritis by macroscopic observation as illustrated in Table 2. According to the scoring criteria in Table 2, 15 is a perfect score.
The dosage of each of the test samples was 3 mg/kg.

CaCo-2 cells = test: Cytostatic Action Test on Various Cells (XTT method); assay type: cell-based; conditions: for IC50: Homo sapiens, read-out: Cytostatic rate (IC50)
Description: The cytostatic measurement of the various cancer cells were conducted according to the method of the U.S. National Cancer Institute (NCI). Adhesive cells such as CaCo-2 and HepG2 were adjusted in each of the specified culture mediums at 0.5×10^5 cells/ml concentration and pipetted into a 96 well-plate (Costar3695) in an amount of 100 μl/well. The cells were cultured under the conditions of at 37° C. in 5% CO2 atmosphere for 24 hours to allow the cell adhesion, and then the numbers of each of the cells were determined by the XTT method to be recorded as the cell number of day 0 (C0days). After that, only the medium solutions were exchanged in the control groups, and culture mediums each containing the test samples adjusted to each of the specified concentrations were exchanged In the test sample dispensing groups, then the cells were cultured under the conditions of at 37° C. in 5% CO2 atmosphere for 72 hours. The numbers of each of the cells were determined by the XTT method to be recorded as the cell number of day 3 (C3days). Further, only the medium solutions were pipetted into the control groups and the test sample administration groups were adjusted to 5×10^5 cells/ml concentrations in each of the specified culture mediums containing the test samples adjusted to each of the specified concentrations, then pipetted into a 96 well-plate (Costar3695) in an amount of 100 μl/well. The cells were cultured under the condition of at 37° C. in 5% CO2 atmosphere for 72 hours, and the number of each of the cells (T3days) were determined in the same manner.
Cell proliferation rate (%) with respect to control groups=[(T3days
-C0days)/(C3days -C0days)]×100 Formula: 5

carrageenan footedema = test: Carrageenan Footedema Suppression Test; assay type: in vivo, SD rats; conditions: oral; paw volume three hours after carrageenan administration
Description: The carrageenin footedema suppression test was conducted according to the method of Winter et al. (J. Pharm. Exp. Ther., Vol.141, 369 (1963)). The test samples suspended in Tween 80 were administered orally to SD rats (6 rats per 1 group) in an amount of 1 ml per 100 g of the body weight, while only the solvent was administered in the same manner as above as a control. One hour after the administration, 1% carrageenan physiological saline was injected subcutaneously to the rats in the plantar area of the right hind paw. Three hours after the carrageenan administration, the paw volumes were measured and the edematization rate (%) was calculated with Formula 1 and then edematization suppression rate (%) was calculated with Formula 2.
Edematization rate (%)=((paw volume after carrageenan injection- paw volume before carrageenan injection)/(paw volume before carrageenan injection)×100 Formula: 1
Edematization suppression rate (%)=((edematization rate of control-
edematization rate of test samples)/edematization rate of […]

Human COX-2 = molecular target: T1, Human COX-2 (Homo sapiens, UniProt P35354); test: Human COX-2 Inhibitory Activity Test (LPS-induced PGE2 in blood); assay type: cell-based
T1 construct: endogenous in cells; host or cells: heparinised whole blood of a healthy human donor pretreated with aspirin, stimulated with LPS (own knowledge: COX-2 is induced in monocytes)
T1 sequence (P35354 18-604): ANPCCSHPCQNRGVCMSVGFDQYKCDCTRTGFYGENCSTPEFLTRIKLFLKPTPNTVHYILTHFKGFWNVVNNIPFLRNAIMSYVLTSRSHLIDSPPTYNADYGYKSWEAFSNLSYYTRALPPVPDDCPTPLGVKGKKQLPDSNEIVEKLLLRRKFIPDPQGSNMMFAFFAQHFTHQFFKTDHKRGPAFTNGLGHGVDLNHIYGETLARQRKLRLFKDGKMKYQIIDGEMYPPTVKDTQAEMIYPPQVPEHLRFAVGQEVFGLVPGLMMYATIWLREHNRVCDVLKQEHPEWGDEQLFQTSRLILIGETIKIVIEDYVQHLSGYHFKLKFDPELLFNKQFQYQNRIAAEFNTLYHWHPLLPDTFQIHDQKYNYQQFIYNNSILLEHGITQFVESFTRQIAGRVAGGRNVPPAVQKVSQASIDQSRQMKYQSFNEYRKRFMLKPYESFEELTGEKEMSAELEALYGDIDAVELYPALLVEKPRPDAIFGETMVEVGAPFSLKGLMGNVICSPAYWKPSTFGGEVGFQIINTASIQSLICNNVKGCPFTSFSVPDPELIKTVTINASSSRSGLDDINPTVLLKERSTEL
Description: COX-1 and COX-2 activities were measured according to the method of Patrignani et al. (J. Pharm. Exp. Ther. Vol. 271, 1705 (1994)).
(2) COX-2 activity was measured in the following procedure. To blood collected from a healthy normal who had taken 330 mg of aspirin 48 hours before the blood collection in order to inhibit the COX-1 activity, 10 unit/ml of sodium heparin was added, and then pipetted into glass test tubes by 1 ml. 10 μg/ml of Lipopolysaccharide (LPS) was added thereto and the plasma obtained by the specified operation was stored at -40° C. until the measurement for the amount of prostaglandin E2 (PGE2). Test samples containing the test samples were treated in the same manner of operation as described above.
(4) The measurement for the PGE2 content was conducted in the following procedure. In a part of 96 well plate coated with goat anti-mouse antibody, 2 wells were alloted respectively to a blank well, Non-specific Binding (NSB) well, Maximum Binding (B0) well, standard wells at seven concentrations of PGE2 (1000 pg/ml) in doubling dilution ranging from 1000-15.6 pg/ml. The rest of the wells were used for the sample measurement. EIA buffer was added to the NSB wells (100 μl) and to the B0 wells (50 μl), respectively. 50 μl of each of the standard dilution was added in an order from thinner to thicker concentrations. Each of the samples was added to the rest of the wells in an amount of 50 μl. Then, 50 μl of PGE2 tracer was added to each of the wells except for blank wells. Further, 50 μl PGE2 monoclonal antibody was added to each of the wells except for the NSB wells and blank wells, then the well plate was covered with a plastic film and the reaction continued at room temperature for 18 hours. When the reaction was terminated, the wells were washed 5 times with a wash buffer. 200 μl of Elman's reagent was added to each of the wells, and then the well plate was covered with a plastic film and developed for 60 minutes in a dark place. The absorbance at 405 nm was measured by an Immuno Reader (NJ-2000, manufactured by Nippon Intermed Co., Ltd.). From the measurement result, %B/B0 was calculated and, applying it to the approximation formula of Hill Plot, the concentration of the samples was determined to be 40 times concentration. The dilution was conducted with an EIA buffer throughout the Test Example 3.

Sarcoma 180 solid tumor = test: Antitumor Effect with respect to Sarcoma 180 Solid Tumor Mouse; assay type: in vivo, ICR mice; conditions: 10 mg/kg in abdominal cavity, 10 days; day 11
Description: The antitumor effect test was conducted according to the method of the U. S. National Cancer Institute (NCI) (Cancer Chemotherapy Reports part 3, Vol. 3, 1 (1978)). Cell suspension of Sarcoma 180 cells (mouse sarcoma virus) which was employed as the tumor cell strain for transplant was prepared by diluting the cells in the Hank's solution at 2×10^7 cells/ml concentration ([…]), and ICR mice (10 mice per group) aged 5 weeks were injected subcutaneously with 0.2 ml of the cell suspension at the region of the back. Setting the day of the tumor transplantation as day 0. the mice were administered in the abdominal cavity with the compounds of the invention (Preparation Examples 1 and 37), 5-fluorouracyl, and the solution as the control for 10 days consecutively from day 1. On day 11, the mice were sacrificed, and portions of the solid tumor were removed so that weights thereof were measured. The dosage of each of the test samples was 10 mg/kg.

Structure (SMILES): CS(=O)(=O)Nc1ccc([N+](=O)[O-])cc1OC1CCCCC1 [Control Compound (c), N-(2-cyclohexyloxy-4-nitrophenyl)methanesulfonamido, reference compound]
- threshold value fluctuation, non-inflammatory paw [1]: exerted no influence on the threshold value fluctuation with respect to the non-inflammatory paw in the same manner as control compound (c)
- Pain Threshold Value Fluctuation Rate ([1]; po, 3 h): -1.46%
- Pain Threshold Value Rising Rate ([1]; po, 3 h): 24.0%
- Body temperature 1 Hour After (Brewer's Yeast Fever; 10 mg/kg oral, 1 hour after): 37.67 °C
- Body temperature 3 Hours After (Brewer's Yeast Fever; 10 mg/kg oral, 3 hours after): 37.04 °C
- Body temperature 5 Hours After (Brewer's Yeast Fever; 10 mg/kg oral, 5 hours after): 37.12 °C
- Intrafebrile Body Temperature (Brewer's Yeast Fever; 18 hours after yeast injection, before administration, 10 mg/kg group): 38.89 °C
- Basal Body Temperature (Brewer's Yeast Fever; one hour after sensor insertion, before yeast, 10 mg/kg group): 37.41 °C

Structure (SMILES): COc1ccc2c(c1)c(CC(=O)O)c(C)n2C(=O)c1ccc(Cl)cc1 [Indomethacin, reference compound]
- Right Hind Paw Volume day 21 (adjuvant arthritis; day 21 (starting date of administration), once daily): 3.88 mL
- Right Hind Paw Volume day 27 (adjuvant arthritis; day 27, once daily for 7 days): 2.69 mL

- IC50 (CaCo-2 cells; CaCo-2, 72 hours, XTT method): 950 nM
- IC50 (Human COX-2; human blood, LPS, PGE2, IC50 from Hill Plot): 140 nM
- COX-1/COX-2 (Human COX-2; ratio of IC50 COX-1 to COX-2): > 714
Structure (SMILES): Cc1cc(-c2ccc3c(ccn3C)c2)c(-c2ccc(S(C)(=O)=O)cc2)[nH]1 [Preparation Example 37, 4-(5-N-methylindolyl)-2-methyl-5-(4-methylsulfonylphenyl)-1H-pyrrole]
- cytostatic action (CaCo-2 cells; CaCo-2 cells, colon cancer cells): demonstrated a cytostatic action with respect to CaCo-2 cells
- Edematization Suppression rate (carrageenan footedema): 26.5%
- Tumor Weight (Sarcoma 180 solid tumor): 0.906 g

Structure (SMILES): O=c1[nH]cc(F)c(=O)[nH]1 [5-fluorouracil, reference compound]
- IC50 (CaCo-2 cells; Caco-2, 72 h): 3300 nM
- Tumor Weight (Sarcoma 180 solid tumor): 0.930 g
